Test system: Rabbit PRP, ADP-induced platelet aggregation
Assay: Inhibitory effect on ADP-induced platelet aggregation
Type: cell-based
Details: ADP (2 μm); for Platelet aggregation inhibitory concentration: concentration at which the inhibition rate (%) in parentheses was found
Procedure: (B) Inhibitory effect on ADP-induced platelet aggregation
Rabbit PRP (250 μl) was preincubated with drug samples ([…]) of aqueous solution or 1 µl of DMSO solution) at 37° C. for 1 minute, and ADP (2 μm)-induced platelet aggregation was measured by aggregometer (NKK HEMA TRACERl Model PAT-4M). Inhibitory effects of the drugs were estimated from the standard curve of maximal aggregation.

SMILES | Platelet aggregation inhibition rate (%) in the parentheses (at 10^-5 mole/liter) | Platelet aggregation inhibitory concentration | Platelet aggregation inhibition rate (%) in the parentheses (at 10^-4 mole/liter)
CC(C)COCC(CN1CCN(S(=O)(=O)c2cccc3c(Cl)cccc23)CC1)N(C)Cc1ccccc1 (stereo not drawn) [Example 9] | 8% | 10^-5 mole/liter | 
CC(C)COCC(CN1CCCN(S(=O)(=O)c2ccccc2)CC1)N(C)Cc1ccccc1 (stereo not drawn) [Example 2, 1-benzenesulfonyl-4-(3-isobutoxy-2-methylbenzylaminopropyl)homopiperazine] |  | 10^-4 mole/liter | 60%
CC(C)COCC(CN1CCN(S(=O)(=O)c2ccccc2)CC1)N(C)Cc1ccccc1 (stereo not drawn) [Example 11] |  | 10^-4 mole/liter | 33%
CC(C)COCC(CN1CCN(C(=O)CCO[N+](=O)[O-])CC1)N(C)Cc1ccccc1 (stereo not drawn) [Example 7] |  | 10^-4 mole/liter | 33%
COc1ccc(S(=O)(=O)N2CCN(CC(COCC(C)C)N(C)Cc3ccccc3)CC2)cc1OC (stereo not drawn) [Example 1, 1-(3,4-dimethoxybenzenesulfonyl)-4-(3-isobutoxy-2-methylbenzylaminopropyl)-piperazine] | 12% | 10^-5 mole/liter | 
CC(C)COCC(CN1CCN(S(C)(=O)=O)CC1)N(C)Cc1ccccc1 (stereo not drawn) [Example 10] |  | 10^-4 mole/liter | 35%
